Legend:
woolly cupgrass = experiment: Test C pre-/postemergence test; assay type: in vivo, Eriochloa villosa
Outline: (§1)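 Test chemicals were formulated with surfactant in a non-phytotoxic solvent and sprayed both on freshly planted seeds (preemergence) and on 1- to 4-leaf plants of 2–18 cm (postemergence). Flooded-paddy pots received compound directly into 3 cm of standing water, maintained for the test.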

yellow nutsedge = experiment: Test C pre-/postemergence test; assay type: in vivo, Cyperus esculentus
Outline: as §1

rice = experiment: Test C flooded paddy test; assay type: in vivo, Oryza sativa; conditions: Flood
Outline: (§2)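 Greenhouse pots flooded to 3 cm above soil at time of treatment received compound via the water, which stayed at that level.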

wild oat = experiment: Test C pre-/postemergence test; assay type: in vivo, Avena fatua
Outline: as §1

green foxtail = experiment: Test C pre-/postemergence test; assay type: in vivo, Setaria viridis; conditions: for Plant response rating (0 to 100), Foxtail, Green: 250 g ai/ha
Outline: as §1

duck salad = experiment: Test C flooded paddy test; assay type: in vivo, Heteranthera limosa; conditions: Flood
Outline: as §2

cocklebur = experiment: Test C pre-/postemergence test; assay type: in vivo, Xanthium strumarium; conditions: for Plant response rating (0 to 100), Cocklebur: 250 g ai/ha
Outline: as §1

kochia = experiment: Test C pre-/postemergence test; assay type: in vivo, Kochia scoparia
Outline: as §1

downy brome = experiment: Test C pre-/postemergence test; assay type: in vivo, Bromus tectorum; conditions: for Plant response rating (0 to 100), Bromegrass, Downy: 250 g ai/ha
Outline: as §1

soybean = experiment: Test C pre-/postemergence test; assay type: in vivo, Glycine max
Outline: as §1

redroot pigweed = experiment: Test A pre-/postemergence greenhouse test; assay type: in vivo, Amaranthus retroflexus; conditions: for Pigweed plant response rating: 0 to 100 scale; for Plant response rating, Pigweed: 0 to 100 scale where 0 is no effect and 100 is complete control
Outline: (§3)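 Two application timings were run side by side in the greenhouse. Before emergence, compound went onto the soil surface of loam–sand pots as a directed spray; after emergence, plants at 2–10 cm and the one- to two-leaf stage were treated. Visual injury versus controls was rated at approximately day ten.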

morningglory = experiment: Test A pre-/postemergence greenhouse test; assay type: in vivo, Ipomoea spp.; conditions: for Morningglory plant response rating: 0 to 100 scale; for Plant response rating, Morningglory: 0 to 100 scale where 0 is no effect and 100 is complete control
Outline: as §3

catchweed bedstraw = experiment: Test C pre-/postemergence test; assay type: in vivo, Galium aparine; conditions: for Plant response rating (0 to 100), Galium: 250 g ai/ha
Outline: as §1

blackgrass = experiment: Test C pre-/postemergence test; assay type: in vivo, Alopecurus myosuroides; conditions: for Plant response rating (0 to 100), Blackgrass: 250 g ai/ha
Outline: as §1

bermudagrass = experiment: Test C pre-/postemergence test; assay type: in vivo, Cynodon dactylon; conditions: for Plant response rating (0 to 100), Bermudagrass: 250 g ai/ha
Outline: as §1

lambsquarters = experiment: Test C pre-/postemergence test; assay type: in vivo, Chenopodium album
Outline: as §1

[1] = 31 g ai/ha, Preemergence, scale 0 to 100
[2] = 62 g ai/ha, preemergence, scale 0 (no effect) to 100 (complete control)
[3] = preemergence, 125 g ai/ha, scale 0 (no effect) to 100 (complete control)
[4] = 31 g ai/ha, scale 0 to 100 (0 no effect, 100 complete control)
[5] = 62 g ai/ha, scale 0 to 100, 0 no effect, 100 complete control, 13 to 15 days
[6] = 125 g ai/ha, scale 0 to 100, 0 no effect, 100 complete control, 13 to 15 days
[7] = 250 g ai/ha, scale 0 to 100 (0 no effect, 100 complete control)
[8] = Postemergence, 125 g ai/ha, 0 is no effect, 100 is complete control
[9] = Postemergence, 500 g ai/ha, 0 is no effect, 100 is complete control
[10] = Preemergence, 125 g ai/ha, 0 no effect, 100 complete control
[11] = 62 g ai/ha, Preemergence, scale 0 to 100
[12] = Preemergence, 31 g ai/ha, scale 0 to 100 (0 no effect, 100 complete control)

## CC(c1c(C(F)(F)F)nn(C)c1Cl)S(=O)(=O)c1cccc[n+]1[O-] (stereo not drawn) [Compound 10]
Woolly cupgrass; [1]
  Cupgrass, Woolly plant response rating: 75
Woolly cupgrass; [2]
  Cupgrass, Woolly plant response rating: 75
Woolly cupgrass; Preemergence, 250 g ai/ha
  Plant response rating (0 to 100), Cupgrass, Woolly: 100
Woolly cupgrass; [3]
  Cupgrass, Woolly plant response rating: 100
Yellow nutsedge; [1]
  Nutsedge, Yellow plant response rating: 60
Yellow nutsedge; [2]
  Nutsedge, Yellow plant response rating: 98
Yellow nutsedge; Preemergence, 250 g ai/ha
  Plant response rating (0 to 100), Nutsedge, Yellow: 100
Yellow nutsedge; [3]
  Nutsedge, Yellow plant response rating: 98
rice; [4]
  Plant response rating, Rice: 0
rice; [5]
  Plant response rating, Rice: 25
rice; [6]
  Plant response rating, Rice: 70
rice; [7]
  Plant response rating, Rice: 80
Wild oat; [1]
  Oat, Wild plant response rating: 0
Wild oat; [2]
  Oat, Wild plant response rating: 0
Wild oat; Preemergence, 250 g ai/ha
  Plant response rating (0 to 100), Oat, Wild: 65
Wild oat; [3]
  Oat, Wild plant response rating: 60
Green foxtail; [1]
  Foxtail, Green plant response rating: 70
Green foxtail; [2]
  Foxtail, Green plant response rating: 85
Green foxtail; Preemergence
  Plant response rating (0 to 100), Foxtail, Green: 100
Green foxtail; [3]
  Foxtail, Green plant response rating: 100
Duck salad; [4]
  Plant response rating, Ducksalad: 30
Duck salad; [5]
  Plant response rating, Ducksalad: 80
Duck salad; [6]
  Plant response rating, Ducksalad: 85
Duck salad; [7]
  Plant response rating, Ducksalad: 90
cocklebur; [1]
  Cocklebur plant response rating: 0
cocklebur; [2]
  Cocklebur plant response rating: 0
cocklebur; Preemergence
  Plant response rating (0 to 100), Cocklebur: 0
cocklebur; [3]
  Cocklebur plant response rating: 0
kochia; [1]
  Kochia plant response rating: 0
kochia; [2]
  Kochia plant response rating: 40
kochia; Preemergence, 250 g ai/ha
  Plant response rating (0 to 100), Kochia: 100
kochia; [3]
  Kochia plant response rating: 80
Downy brome; [1]
  Bromegrass, Downy plant response rating: 0
Downy brome; [2]
  Bromegrass, Downy plant response rating: 0
Downy brome; Preemergence
  Plant response rating (0 to 100), Bromegrass, Downy: 70
Downy brome; [3]
  Bromegrass, Downy plant response rating: 10
soybean; [1]
  Soybean plant response rating: 0
soybean; [2]
  Soybean plant response rating: 0
soybean; Preemergence, 250 g ai/ha
  Plant response rating (0 to 100), Soybean: 10
soybean; [3]
  Soybean plant response rating: 5
Redroot pigweed; [8]
  Pigweed plant response rating: 30
Redroot pigweed; [9]
  Pigweed plant response rating: 60
Redroot pigweed; [10]
  Pigweed plant response rating: 100
Redroot pigweed; Preemergence, 500 g ai/ha
  Plant response rating, Pigweed: 100
morningglory; [8]
  Morningglory plant response rating: 20
morningglory; [9]
  Morningglory plant response rating: 90
morningglory; [10]
  Morningglory plant response rating: 80
morningglory; Preemergence, 500 g ai/ha
  Plant response rating, Morningglory: 90
Catchweed bedstraw; [1]
  Galium plant response rating: 0
Catchweed bedstraw; [2]
  Galium plant response rating: 50
Catchweed bedstraw; Preemergence
  Plant response rating (0 to 100), Galium: 100
Catchweed bedstraw; [3]
  Galium plant response rating: 100
blackgrass; [1]
  Blackgrass plant response rating: 0
blackgrass; [2]
  Blackgrass plant response rating: 70
blackgrass; Preemergence
  Plant response rating (0 to 100), Blackgrass: 100
blackgrass; [3]
  Blackgrass plant response rating: 98
bermudagrass; [1]
  Bermudagrass plant response rating: 95
bermudagrass; [2]
  Bermudagrass plant response rating: 100
bermudagrass; Preemergence
  Plant response rating (0 to 100), Bermudagrass: 100
bermudagrass; [3]
  Bermudagrass plant response rating: 100
lambsquarters; [1]
  Lambsquarters plant response rating: 0
lambsquarters; [2]
  Lambsquarters plant response rating: 98
lambsquarters; Preemergence, 250 g ai/ha
  Plant response rating (0 to 100), Lambsquarters: 100
lambsquarters; [3]
  Lambsquarters plant response rating: 100

## Cc1cc[n+]([O-])c(S(=O)(=O)C(Cl)c2c(C(F)(F)F)nn(C)c2Cl)c1 (racemic) [Compound 22]
Woolly cupgrass; [11]
  Cupgrass, Woolly plant response rating: 100
Woolly cupgrass; [12]
  Plant response rating, Cupgrass, Woolly: 60
Yellow nutsedge; [11]
  Nutsedge, Yellow plant response rating: 60
Yellow nutsedge; [12]
  Plant response rating, Nutsedge, Yellow: 50
rice; [4]
  Plant response rating, Rice: 0
rice; [5]
  Plant response rating, Rice: 30
rice; [6]
  Plant response rating, Rice: 80
rice; [7]
  Plant response rating, Rice: 80
Wild oat; [11]
  Oat, Wild plant response rating: 45
Wild oat; [12]
  Plant response rating, Oat, Wild: 0
Green foxtail; [11]
  Foxtail, Green plant response rating: 100
Green foxtail; [12]
  Plant response rating, Foxtail, Green: 100
Green foxtail; Preemergence
  Plant response rating (0 to 100), Foxtail, Green: 100
Duck salad; [4]
  Plant response rating, Ducksalad: 20
Duck salad; [5]
  Plant response rating, Ducksalad: 80
Duck salad; [6]
  Plant response rating, Ducksalad: 85
Duck salad; [7]
  Plant response rating, Ducksalad: 90
cocklebur; [11]
  Cocklebur plant response rating: 0
cocklebur; [12]
  Plant response rating, Cocklebur: 0
cocklebur; Preemergence
  Plant response rating (0 to 100), Cocklebur: 0
cocklebur; [3]
  Cocklebur plant response rating: 0
kochia; [11]
  Kochia plant response rating: 0
kochia; [12]
  Plant response rating, Kochia: 0
Downy brome; [11]
  Bromegrass, Downy plant response rating: 0
Downy brome; [12]
  Plant response rating, Bromegrass, Downy: 0
Downy brome; Preemergence
  Plant response rating (0 to 100), Bromegrass, Downy: 0
Downy brome; [3]
  Bromegrass, Downy plant response rating: 0
soybean; [11]
  Soybean plant response rating: 0
soybean; [12]
  Plant response rating, Soybean: 0
Redroot pigweed; [8]
  Pigweed plant response rating: 10
Redroot pigweed; [9]
  Pigweed plant response rating: 50
Redroot pigweed; [10]
  Pigweed plant response rating: 100
Redroot pigweed; Preemergence, 500 g ai/ha
  Plant response rating, Pigweed: 100
morningglory; [8]
  Morningglory plant response rating: 20
morningglory; [9]
  Morningglory plant response rating: 40
morningglory; [10]
  Morningglory plant response rating: 70
morningglory; Preemergence, 500 g ai/ha
  Plant response rating, Morningglory: 90
Catchweed bedstraw; [11]
  Galium plant response rating: 100
Catchweed bedstraw; [12]
  Plant response rating, Galium: 95
Catchweed bedstraw; Preemergence
  Plant response rating (0 to 100), Galium: 100
blackgrass; [11]
  Blackgrass plant response rating: 95
blackgrass; [12]
  Plant response rating, Blackgrass: 55
blackgrass; Preemergence
  Plant response rating (0 to 100), Blackgrass: 98
blackgrass; [3]
  Blackgrass plant response rating: 95
bermudagrass; 62 g ai/ha, Preemergence, scale 0 to 100 (0 no effect, 100 complete control)
  Bermudagrass plant response rating: 100
bermudagrass; [12]
  Plant response rating, Bermudagrass: 70
bermudagrass; Preemergence
  Plant response rating (0 to 100), Bermudagrass: 100
bermudagrass; [3]
  Bermudagrass plant response rating: 100
lambsquarters; [11]
  Lambsquarters plant response rating: 100
lambsquarters; [12]
  Plant response rating, Lambsquarters: 0

From patent US20100298141A1, “SUBSTITUTED PYRIDINE N-OXIDE HERBICIDES” (E. I. DU PONT DE NEMOURS AND COMPANY, priority 2007, published 2010)
